Patent publication US7048907B2, “Synthesis, compositions and methods for the measurement of the concentration of stable-isotope labeled compounds in life forms and life form excretory products” (BioPhysics Assay Laboratory, Inc., priority 2001, dated 2006)
Like-named read-outs stand apart in the source and are kept apart here.

How the values were obtained:
[1] = male, New Zealand White, rabbit, in vivo
Method: One New Zealand White male rabbit (m=2 kg) was sedated with intramuscular ketanine (35 mg/kg) and xylazine (5 mg/kg). Both the right and left ear veins were catheterized. One line was used to inject Iohexol (Omnipaque®, Nycomed, Inc., Princeton, N.J.). The injected dose (ID) was 90 mg of iodine. […] For each blood sample, 100 μl of serum was placed in a clean sample vial. A metallic monitor was than added to each vial to account for potential neutron flux density variations during neutron activation analysis. Neutron activation was performed in a 2 megawatt reactor for 1 min and samples were counted within 30 minutes following activation. Counts were converted into disintegrations per minute and the measured iodine concentration for each sample was plotted as a function of time of sample withdrawal. The data was fit to a two compartment exponential model using the equation: Plasma concentration=Ae^−(at)+Be^−(bt). […] The GFR (ml/kg/min) was than calculated as follows: GFR=(ID/AUC)/m, where: ID=initial dose of iohexol, AUC=(A/a+B/b), and m=minutes.

[2] = Assay of chelate on carboxymethyl (CM) Sephadex column (chelate formation, charge); format: physicochemical; conditions: for % of total: DOTA chelates; for umol Gd: atomic absorption
Method: Preparation of carboxymethyl sephadex column. To two 10 ml plastic pipets cut off at the 3 ml mark and plugged with glass wool at the bottom add enough slurry to form a 2 ml volume of the CM sephadex. Wash the packed resin with 6 ml of 1 M Tris buffer pH 7.5, and 6 ml of 0.01M Tris buffer pH 7.5. […] Collect the eluants of fractions as follows. Fraction 1.3 ml of 0.01 M Tris buffer pH 7.5 and allow to drain into column. Fraction 2.1 ml of sample (gadolinium-DTPA or gadolinium chloride) and allow to drain into column. Apply 3 ml of 0.01 M Tris buffer pH 7.5 and allow to drain into column. Fraction 3.3 ml of 0.01M Tris buffer pH 7.5 and allow to drain into column. Dry all fractions at 70° C. for 76 hours, dissolve in 1 ml of 1 mM HCl and assay by atomic absorption.
(§1) Preparation of carboxymethyl Sephadex column. To two 10 ml plastic pipets which had been cut off at the 3 ml mark and plugged with glass wool at the bottom, enough slurry was added to form a 2 ml volume of the CM Sephadex. The packed resin was wash with 6 ml of 1 M Tris buffer pH 7.5, and 6 ml of 0.01M Tris buffer pH 7.5. […] Fractions were applied as follows. Fraction 1. Three ml of 0.01 M Tris buffer pH 7.5 and allow to drain into column. Fraction 2. One ml of sample (samarium-DTPA or samarium chloride) and allow to drain into column. Apply 3 ml of 0.01 M Tris buffer pH 7.5 and allow to drain into column. Fraction 3. Three ml of 0.01M Tris buffer pH 7.5 and allow to drain into column. Collect the eluant of fractions 1 through 3. Fraction 4. Column and contents.
as §1, with “were” for “had been”, “washed” for “wash”, “(lanthanum-DTPA” for “(samarium-DTPA”, “lanthanum” for “samarium”
as §1, with “were” for “had been”, “washed” for “wash”, “(Europium-DTPA” for “(samarium-DTPA”, “Europium” for “samarium”
Preparation of carboxymethyl sephadex column. To a 10 ml plastic pipet cut off at the 3 ml mark and plugged with glass wool at the bottom, add enough slurry to form a 2 ml volume of the CM sephadex. Wash the packed resin with 6 ml of 1 M Tris buffer pH 7.5, and 6 ml of 0.01M Tris buffer pH 7.5. […] Apply fractions as follows. Fraction 1. One ml of sample A and allow to drain into column.

[3] = demonstrated by properties of the marketed pharmaceutical product; cited from earlier work
[4] = in vivo; cited from earlier work
[5] = Fraction 1: 1 ml sample diluted 1:10 then 3 ml 0.01M Tris pH 7.5 (eluate)
[6] = Fraction 2: further 3 ml 0.01M Tris pH 7.5

SMILES: CC(=O)N(CC(O)CO)c1c(I)c(C(=O)NCC(O)CO)c(I)c(C(=O)NCC(O)CO)c1I (stereo not drawn) [Iohexol]
- GFR [1]: 4.8 mL/min/kg
- serum concentration ([1]; 5 min): 124.4 µg/mL
- serum iodine signal ([1]; 5 min): 5166.1 dpm/ul
- serum concentration ([1]; 10 min): 109.4 µg/mL
- serum iodine signal ([1]; 10 min): 4541.7 dpm/ul
- serum concentration ([1]; 15 min): 86.6 µg/mL
- serum iodine signal ([1]; 15 min): 3595.7 dpm/ul
- serum concentration ([1]; 20 min): 88.85 µg/mL
- serum iodine signal ([1]; 20 min): 3689.4 dpm/ul
- serum concentration ([1]; 30 min): 67.69 µg/mL
- serum iodine signal ([1]; 30 min): 2810.5 dpm/ul
- serum concentration ([1]; 45 min): 47.02 µg/mL
- serum iodine signal ([1]; 45 min): 1952.3 dpm/ul
- serum concentration ([1]; 60 min): 48.94 µg/mL
- serum iodine signal ([1]; 60 min): 2032.3 dpm/ul
- serum concentration ([1]; 96 min): 31.74 µg/mL
- serum iodine signal ([1]; 96 min): 1317.8 dpm/ul
- serum concentration ([1]; 120 min): 23.65 µg/mL
- serum iodine signal ([1]; 120 min): 982.0 dpm/ul

SMILES: O=C([O-])CN1CCN(CC(=O)[O-])CCN(CC(=O)O)CCN(CC(=O)[O-])CC1.[Gd+3] [Gd-DOTA, Gd-(1,4,7,10-tetraazacyclododecane-1,4,7,10-tetraacetic acid), reference compound]
- % eluted from the CM-Sephadex column [2]: 100%
- % of total [2, 5]: 100 % of total
- % of total [2, 6]: 0 % of total
- umol Gd [2, 5]: 0.1 µmol
- umol Gd [2, 6]: 0 µmol
- time within which the chelate forms ([2]; room temperature, Tris pH 7.5): ≤ 5 min
- stability to autoclaving [3]: stable to autoclaving

SMILES: O=C([O-])C(NCCNC(C(=O)[O-])c1ccccc1[O-])c1ccccc1[O-].[Fe+3] (stereo not drawn) [FE-EHPG]
- uptake into liver [4]: 6 % of an administered dose
